How the values were obtained:
[1] = Maximum concentration at 100 mg/kg upon subcutaneous administration was determined in mouse; n = 5; type: ADME, organism-based; set-up: dose 100 mg/kg, route subcutaneous; conditions: in vivo, sc
[2] = target: T1, 3-oxo-5-alpha-steroid 4-dehydrogenase 2 (Homo sapiens) (UniProt P31213); assay: (§1) Inhibition of [1-beta-2beta-3H]- -testosterone binding to human steroid 5-alpha-reductase type 2 of BPH tissue at 10 uM; type: functional
T1 sequence (whole entry): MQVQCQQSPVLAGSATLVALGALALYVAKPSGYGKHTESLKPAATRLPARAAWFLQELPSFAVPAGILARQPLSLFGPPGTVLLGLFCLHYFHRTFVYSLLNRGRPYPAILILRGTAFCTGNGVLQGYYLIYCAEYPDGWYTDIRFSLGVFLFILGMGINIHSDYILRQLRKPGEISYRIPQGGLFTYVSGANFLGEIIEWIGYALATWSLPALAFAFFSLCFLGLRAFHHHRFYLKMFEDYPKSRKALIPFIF

[3] = Half life at 100 mg/kg upon subcutaneous administration was determined in mouse; n = 5; type: ADME, organism-based; set-up: dose 100 mg/kg, route subcutaneous; conditions: in vivo, sc
[4] = Elimination rate constant at 50 mg/kg upon subcutaneous administration was determined in mouse; n = 5; type: ADME, organism-based; set-up: dose 50 mg/kg, route subcutaneous; conditions: in vivo, sc
[5] = Area under curve at 50 mg/kg upon subcutaneous administration was determined in mouse; n = 5; type: ADME, organism-based; set-up: dose 50 mg/kg, route subcutaneous; conditions: in vivo, sc
[6] = Area under curve at 100 mg/kg upon subcutaneous administration was determined in mouse; n = 5; type: ADME, organism-based; set-up: dose 100 mg/kg, route subcutaneous; conditions: in vivo, sc
[7] = Maximum concentration at 50 mg/kg upon subcutaneous administration was determined in mouse; n = 5; type: ADME, organism-based; set-up: dose 50 mg/kg, route subcutaneous; conditions: in vivo, sc
[8] = Half life at 50 mg/kg upon subcutaneous administration was determined in mouse; n = 5; type: ADME, organism-based; set-up: dose 50 mg/kg, route subcutaneous; conditions: in vivo, sc
[9] = Time required for maximum concentration at 100 mg/kg upon subcutaneous administration was determined in mouse; n = 5; type: ADME, organism-based; set-up: dose 100 mg/kg, route subcutaneous; conditions: in vivo, sc
[10] = Time required for maximum concentration at 50 mg/kg upon subcutaneous administration was determined in mouse; n = 5; type: ADME, organism-based; set-up: dose 50 mg/kg, route subcutaneous; conditions: in vivo, sc
[11] = […] at 50 mg/kg upon subcutaneous administration was determined in mouse; n = 5; type: ADME, organism-based; set-up: dose 50 mg/kg, route subcutaneous; conditions: in vivo, sc
[12] = Volume of distribution at 50 mg/kg upon subcutaneous administration was determined in mouse; n = 5; type: ADME, organism-based; set-up: dose 50 mg/kg, route subcutaneous; conditions: in vivo, sc
[13] = target: T2, 3-oxo-5-alpha-steroid 4-dehydrogenase 1 (Homo sapiens) (UniProt P18405); assay: Inhibition of human steroid 5-alpha-reductase type I expressed in DU-145 cells using [1-beta-3H]-androstenedione at a concentration of 10 uM; type: functional, cell-based
T2 sequence (whole entry): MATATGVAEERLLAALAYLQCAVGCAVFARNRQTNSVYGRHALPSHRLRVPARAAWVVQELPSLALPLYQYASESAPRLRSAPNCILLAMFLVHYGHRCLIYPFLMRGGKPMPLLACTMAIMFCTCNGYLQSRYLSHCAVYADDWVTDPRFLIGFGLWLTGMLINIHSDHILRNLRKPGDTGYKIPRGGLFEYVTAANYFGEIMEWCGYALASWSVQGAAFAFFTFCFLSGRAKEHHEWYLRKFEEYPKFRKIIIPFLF

[14] = Volume of distribution at 100 mg/kg upon subcutaneous administration was determined in mouse; n = 5; type: ADME, organism-based; set-up: dose 100 mg/kg, route subcutaneous; conditions: in vivo, sc
[15] = target: T3, 3-oxo-5-alpha-steroid 4-dehydrogenase 2 (Homo sapiens, UniProt P31213); assay: as §1; type: functional
T3 sequence (P31213 whole entry): T1 sequence (whole entry)

[16] = target: T4, 3-oxo-5-alpha-steroid 4-dehydrogenase 1 (Homo sapiens, UniProt P18405); assay: Inhibition of [1-beta-3H]-androstenedione binding to human steroid 5-alpha-reductase type I expressed in DU-145 cells at 10 uM; type: functional, cell-based
T4 sequence (P18405 whole entry): T2 sequence (whole entry)

[17] = target: T2, 3-oxo-5-alpha-steroid 4-dehydrogenase 1 (Homo sapiens); assay: Inhibition of [1-beta-3H]-androstenedione binding to human steroid 5-alpha-reductase type I expressed in DU-145 cells at 10 uM; ni=no inhibition up to 10 uM; type: functional, cell-based

| SMILES | Cmax [1] [ng/mL] | inhibition [2] [%] | T1/2 [3] [min] | Kel [4] [h⁻¹] | AUC [5] [ng·h/mL] | AUC [6] [ng·h/mL] | Cmax [7] [ng/mL] | T1/2 [8] [min] | Tmax [9] [min] | Tmax [10] [min] | MRT [11] [h] | Vd [12] [mL/kg] | inhibition [13] [%] | Vd [14] [mL/kg] | IC50 [15] [nM] | k el [4] [s⁻¹] | IC50 [16] [nM] | half-life [8] [min] | inhibition [17] |
| --- | --- | --- | --- | --- | --- | --- | --- | --- | --- | --- | --- | --- | --- | --- | --- | --- | --- | --- | --- |
| C[C@]12CC[C@H](O)CC1=CCC1C2CC[C@]2(C)C(n3cnc4ccccc43)=CCC12 (some centres not stated) | 32200 | 53 | 36.6 | 0.942 | 24000 | 30200 | 16800 | 44.17 | 30 | 30 | 1.09 | 2098.99 | 4 | 3276.39 | – | – | – | – | – |
| C[C@]12CCC(=O)C=C1CCC1C2CC[C@]2(C)C(n3nnc4ccccc43)=CCC12 (some centres not stated) | – | 56 | – | – | – | – | – | – | – | – | – | – | 21 | – | – | – | – | – | – |
| C[C@]12CCC(=O)C=C1CCC1C2CC[C@]2(C)C(n3cnc4ccccc43)=CCC12 (some centres not stated) | – | – | – | – | 10800 | – | 5150 | – | – | 60 | 1.33 | 4207 | – | – | 480 | 0.000305 | 770 | 37.9 | – |
| C[C@]12CC[C@H](O)CC1=CCC1C2CC[C@]2(C)C(n3nnc4ccccc43)=CCC12 (some centres not stated) | – | 17 | – | – | – | – | – | – | – | – | – | – | – | – | – | – | – | – | No inhibition |
